Source: patent US20120142767A1, “PINE PCO ESTER COSMETIC COMPOSITION” (ACTION PIN, priority 2009, published 2012)
“And” between values parts separate entries of the source, which are not always exact repeats. Equal entries are not always repeated.

Tests used:
[1] = tested on: IL-1α; test: Assay of IL-1α in the culture medium of UVB-irradiated reconstructed human epidermis; assay type: cell-based; details: indomethacin 3 hours before irradiation, not statistically significant
Protocol: A human epidermis is reconstructed in vitro in culture inserts. A paper filter disc on which the substance to be tested (preventive treatment) is deposited on the “stratum corneum”. After 24 hours, it is irradiated by UVBs and then the substance to be tested (curative treatment) is again applied. an assay of IL-1α, a pro-inflammatory mediator in the culture medium, […] 3 series of substance to be tested (5, 50 and 500 μg/mL) each consisting of 3 epidermises (to be irradiated). Next, the paper filter disks are carefully withdrawn and all the series are irradiated with UVBs (0.6 J/cm^2) (Spectroline model X-15N/F, λ=312 nm) except for the series corresponding to the absolute negative control and to the solvent control. The curative treatment is then applied as described above for the preventive treatment over a period of 24 hours, except for the positive control series 2 (indomethacin). The assay of IL-1α is carried out in the sampled culture media (n=3), diluted to 1/10th and to 1/20th according to the procedure described in the assay kit.

[2] = tested on: reconstructed human epidermis; test: Cytotoxicity (MTT) on reconstructed human epidermis irradiated by UVBs; assay type: cell-based; details: for AU (MTT): 3 epidermises and mean ± SD
Protocol: A human epidermis is reconstructed in vitro in culture inserts. A paper filter disc on which the substance to be tested (preventive treatment) is deposited on the “stratum corneum”. After 24 hours, it is irradiated by UVBs and then the substance to be tested (curative treatment) is again applied. a study of cytoxicity (MTT), The keratinocytes sites are sown at a density of 100×10^3 cells/cm^2 in inserts, the bottom of which consists of a polycarbonate membrane (porosity 0.4 μm-1 cm^2). […] 3 series of substance to be tested (5, 50 and 500 μg/mL) each consisting of 3 epidermises (to be irradiated). Next, the paper filter disks are carefully withdrawn and all the series are irradiated with UVBs (0.6 J/cm^2) (Spectroline model X-15N/F, λ=312 nm) except for the series corresponding to the absolute negative control and to the solvent control. The curative treatment is then applied as described above for the preventive treatment over a period of 24 hours, except for the positive control series 2 (indomethacin). The MTT test is carried out according to the conditions described in the publications: […]. and Berg K. Re-examination and further development of a precise and rapid dye method for measuring cell growth/cell kill. J. Immunol. Methods. 1989, 119, 203; and Mosmann T., Rapid colorimetric assay for cellular growth and survival: Application to proliferation and cytotoxic assays, J. Immunol. Methods. 1983, 65, 55-63. At the end of the selected incubation time, the Whatman paper disk is carefully picked up, the <<stratum corneum>> is rinsed and the porous membrane bearing the epidermal layer is detached from the insert with a bistoury. The culture medium are used for assaying IL-1α and MDA. […] For each layer, 200 μL of the obtained solution are pipeted into an 96 well plate for carrying out spectrometry with a plate reader (FL600-BIO-TEK) at λ=540 nm.

[3] = tested on: normal human fibroblasts; test: Synthesis of collagen by human fibroblasts (Sircol assay); assay type: cell-based; set-up: stimulation of collagen at the cell matrix: dose or concentration left out as unconfirmed
Protocol: The goal of this study is to evaluate the effect of the test element on the synthesis of collagen after 24-hour contact with a monolayer of normal human fibroblasts.
The cells used are fibroblasts from a human child skin tissue (child) on passage 2.
The cells are sown with 50,000 cells/cm^2. After 24 hours of culture, 37° C., 5% CO2, they are incubated with the product under investigation and the reference element for 24 hours in a 1% FCS medium.
The collagen is assayed in the extra cellular matrix and in the culture medium by means of the assay box Sircol, Biocolor Ltd, Ireland, according to the procedure described in the box.
The assay is carried out with the red colouring agent Sirius (Direct Red 80) which has specific affinity for the trip helix structure (Gly-X-Y)n of native collagen.
The absorbance of the dye-collagen complex is read out with the spectrophotometer at 540 nm.
A standard curve is produced between 0 and 50 μg/mL of collagen of type I.
The collagen concentration is expressed in pg of collagen /ml/U MTT in the extra cellular matrix and in the culture medium.

[4] = tested on: MDA (malonaldehyde); test: Assay of MDA (lipid peroxidation) in the culture medium of UVB-irradiated reconstructed human epidermis; assay type: cell-based; details: for MDA / MDA (μM/AU MTT): vitamin E 200 μg/mL + UVB, 3 epidermises and mean ± SD
Protocol: A human epidermis is reconstructed in vitro in culture inserts. A paper filter disc on which the substance to be tested (preventive treatment) is deposited on the “stratum corneum”. After 24 hours, it is irradiated by UVBs and then the substance to be tested (curative treatment) is again applied. an assay of MDA (malonaldehyde) (a terminal product formed during the lipid peroxidation process induced by the formation of radical species, or species activated by oxygen). […] 3 series of substance to be tested (5, 50 and 500 μg/mL) each consisting of 3 epidermises (to be irradiated). Next, the paper filter disks are carefully withdrawn and all the series are irradiated with UVBs (0.6 J/cm^2) (Spectroline model X-15N/F, λ=312 nm) except for the series corresponding to the absolute negative control and to the solvent control. The curative treatment is then applied as described above for the preventive treatment over a period of 24 hours, except for the positive control series 2 (indomethacin). […] dilutions are carried out between 0.1 and 10 μM (0.1-1-2.5-5 and 10 μM). 500 μL of culture medium (or 500 μL of a standard range) are energetically mixed in a vortex mixer, with 1 mL of a <<TCA, TBA, HCl>> solution ([…] of TCA trichloroacetic acid, 0.375% (w/v) of TBA (2-thiobarbituric acid), 0.25 M of HCl) (heated for 15 minutes at 100° C. in order to dissolve the TBA, and then left to cool). The mixture is incubated for 15 minutes at 100° C. and the OD is measured at λ=535 nm against a blank formed with the <<TCA, TBA, HCl>> solution.

[5] = tested on: normal human fibroblasts; test: Cytotoxic activity on a monolayer of human fibroblasts (MTT, 24 hours); details: positive control (SDS), concentration not given
Protocol: After applying the product on the cells for 24 hours, cell viability is evaluated by measuring the activity of the mitochondrial succinate dehydrogenase of living cells. This enzyme transforms MTT (3(4,5-diméthylthiazol-2-yl)-2,5-diphenyltetrazolium bromide) into blue formazan crystals. After dissolution of these crystals, a spectrophotometric read-out is performed. The measured absorbancies are proportional to the number of living cells.
The cells used are fibroblast from human skin tissue (child foreskin) in passage 1.
Six dilutions of each sample, prepared in an culture medium with 0.005% of between 60 and 0.05% of cotton oil, are tested in an amount of 5 test wells per concentration. The reference elements are tested on 5 wells.
The absorbance is measured at 540 nm. The results are expressed as a mortality percentage compared with the negative control.

COc1ccc2c(c1)c(CC(=O)O)c(C)n2C(=O)c1ccc(Cl)cc1 [Indomethacin, indomethacin]
inhibition of synthesis and secretion of IL-1α in the culture medium [1]: −20%
AU (MTT) ([2]; indomethacin 10 μg/mL, 3 hours before UVB): 0.214 AU and 0.288 AU and 0.232 AU
protective effect as regards cytotoxicity ([2]; indomethacin for 3 hours before irradiation): no protective effect

TGF β1: positive control of the collagen synthesis test
stimulation of collagen at the cell matrix ([3]; TGF β1): 88%
Assay of collagen, Cell matrix ([3]; TGF β1 (100 ng/ml)): 9.74 μg/wells
Assay of collagen, Culture medium ([3]; TGF β1 (100 ng/ml)): 11.36 μg/wells
Assay of collagen, TOTAL ([3]; TGF β1 (100 ng/ml)): 21.09 μg/wells
Collagen ratio, Cell matrix ([3]; TGF β1 (100 ng/ml)): 10.42 μg/wells/U MTT
Collagen ratio, Culture medium ([3]; TGF β1 (100 ng/ml)): 12.15 μg/wells/U MTT
Collagen ratio, TOTAL ([3]; TGF β1 (100 ng/ml)): 22.57 μg/wells/U MTT
Stimulation of collagen excreted into the culture medium ([3]; TGF β1 (100 ng/ml)): 12%
Stimulation of collagen produced in the cell matrix ([3]; TGF β1 (100 ng/ml)): 88%
Stimulation of the synthesis of total collagen ([3]; TGF β1 (100 ng/ml)): 38%
stimulation of total synthesis of collagen ([3]; TGF β1 at 10 μg/mL): 38%

vitamin E
MDA [4]: 0.422 µM and 0.423 µM and 0.484 µM
MDA (μM/AU MTT) [4]: 1.715 μM/AU MTT and 1.147 μM/AU MTT and 1.359 μM/AU MTT
MDA ([4]; mean ± SD of three epidermises): 0.443 ± 0.035 µM
MDA (μM/AU MTT) ([4]; mean ± SD of three epidermises): 1.407 ± 0.287 μM/AU MTT
increase in the MDA level ([4]; vitamin E before and after irradiation, with respect to the non-irradiated absolute negative control, P<0.05): 58%
cytotoxic effect [2]: 13%
AU (MTT) ([2]; vitamin E 200 μg/mL + UVB): 0.246 AU and 0.369 AU and 0.356 AU

CCCCCCCCCCCCOS(=O)(=O)[O-].[Na+] [Positive control, SDS]
UA MTT [5]: 0.065 UA
